Data set [1] concerns OE21 cells. The data set can be described thus: Micronuclei formation, OE21. Type of data set: cell-based, human. The following applies: 20 μM Ru1, 24 h incubation. Here is the method:
(§1) propidium iodide (PI) is standard to quantify DNA content using flow cytometry, bleed-through of the MLCT emission of […]
(§2) To remove these artefacts, a higher concentration of Ru1 (100 µM, 10 mins) was additionally applied post-incubation and fixation to treated and control samples, acting as a substitute DNA dye instead of PI. After staining, cells were centrifuged (1000 rpm, 5 mins) and re-suspended in PBS.
(§3) Samples were analysed using a Biosciences LSRII Flow Cytometer using the FL2 channel to collect (recognisable) cell-cycle […]
(§4) profiles. […] A minimum of
(§5) 10,000 cells were counted for each sample and data were processed using FloJo software.
(§6) Microscopy and immunofluorescence. […]
(§7) emission was collected from 500-530 nm to prevent spectral overlap with Ru1 emission. γH2AX foci were counted using […]
(§8) The absorbance at 540 nm was quantified by plate reader (reference wavelength 650 nm). The metabolic activity of the cell population was determined as a percentage of a negative (solvent) control. […]
(§9) Cell cultures were treated as stated, media containing detached/dead cells were removed and retained, and adherent collected by Trypsin and centrifugation. […] Trypan Blue negative and Trypan Blue positive cells were counted by haemocytometer. A minimum of 200 cells were counted for each sample. […]

For data set [2], the system named is OE21 cells. The data set can be described thus: Trypan Blue exclusion assay. The data set is classed as cell-based, human. The note with it: OE21, Ru1 21 μM. As to the method:
Trypan Blue exclusion assay. OE21 cells were seeded in 6 well plates at 40,000 cells/well and allowed to adhere for 24 h.
Cell cultures were treated as stated, media containing detached/dead cells were removed and retained, and adherent collected by Trypsin and centrifugation. Adherent and detached cells for each sample were combined, concentrated via centrifugation and re-suspended in 0.5 ml PBS containing 0.04% Trypan Blue solution. Trypan Blue negative and Trypan Blue positive cells were counted by haemocytometer. A minimum of 200 cells were counted for each sample. […]
(§10) For the determination of mutation induction, from the untreated and each treated condition, 2x10^5 cells were plated in 10 x 100 mm dishes in selective media (regular media

The subject of another data set is FLO-1 cells. The data set can be described thus: Clonogenic survival assay with IR, FLO-1. Type of data set: cell-based, human. The following applies: Ru1 2 μM or Cis 300 nM for 24 h before IR. As to the method:
Clonogenic survival assay. OE21, OE33 or FLO1 cells were treated with 2 µM Ru1 for 24 h before irradiation with 0-8 Gy using a 137Cs γ-irradiator (IBL637, CIS Bio Int.; dose rate = 0.809 Gy min−1). 1 h after irradiation, cells were detached using Trypsin and re-seeded in 6 well plates at a density of 300 – 20,000 cells/well in triplicate in an incrementally greater number of cells with increasing IR dose to ensure adequate colony formation. Cells were incubated for 7–14 days after re-seeding to allow colony formation before being fixed with 10% methanol, 10% acetic acid and stained with 0.4% methylene blue. OE33 cells required an additional formaldehyde fixation (4% in PBS, 5 mins) step before the addition of methylene blue solution or colony detachment occurred. Colonies containing 50 cells or greater were counted using a Gelcount instrument and accompanying software (Oxford Optronix). Plating efficiencies were determined for each treatment condition and normalised to an untreated control to provide the surviving fraction (S. F.). S.F. versus radiation dose curves were plotted in GraphPad Prism and fit using a second order polynomial function (R2 values > 0.99). Dose modifying factors (DMF) at a SF=0.1 were calculated using the equation: Dose modifying factor (DMF) = IR dose to give S.F. 0.1/IR dose plus compound to give S.F.0.1. […]

For data set [3], the system named is FLO-1 human oesophageal adenocarcinoma. The data set can be described thus: MTT assay, FLO-1 cells. Type of data set: cell-based. As to the method:
MTT assay. OE21, FLO-1 or hSAEC1-KT cells were seeded in 96 well plates at 20,000 cells/well (for 24 h treatment) or 10,000 cells/well (for 72 h treatment) and allowed to adhere for 24 h before treatment. OE33 cells were seeded in 48 well plates at 40,000 cells/well (24 h treatment) or 20,000 cells/well (72 h treatment). Cancer cell lines were treated with chemicals dissolved in RPMI media for consistency. After incubation, 0.5 mg/ml MTT (thiazolyl blue tetrazolium bromide) dissolved in serum-free medium was added for 60 minutes and the formazan product eluted using acidified isopropanol.
as §8, §10

For data set [4] the following is noted: cited from earlier work.
The test system of a further data set is OE33 cells. The data set can be described thus: Micronuclei formation, OE33. Type of data set: cell-based, human. The note with it: OE33, 45 μM Ru1, 24 h incubation. Here is the method:
as §1, §2, §3, §4, §5, §6, §7, §8, §9

In general, IC50 refers to the concentration that inhibits the measured activity by half. Low values mean greater potency in that assay, high ones weaker potency in that assay.

For the substance [Ru(phen)2(tpphz)]^2+ [Ru1], the “Cells with micronuclei, Percentage” value in the data set with OE21 cells [1] (OE21 (n=1)) amounted to 17.8%; in the data set with OE21 cells [1] (OE21 (n=2)), 15.0%; in the data set with OE33 cells, 3.4%. Also, the “necrotic cell death (Trypan blue staining)” value in the data set with OE21 cells [2] is given as about 20%. The S.F. is reported as 0.873 in the data set with FLO-1 cells (FLO-1, IR 0 Gy); 0.188 in the data set with FLO-1 cells (FLO-1, IR 2 Gy); 0.042 in the data set with FLO-1 cells (FLO-1, IR 4 Gy); 0.005 in the data set with FLO-1 cells (FLO-1, IR 6 Gy). Also, the IC50 stood at 42 ± 8 µM in data set [3] (FLO1, 24 h constant exposure) and 11.5 ± 2.1 µM in data set [3] (FLO1, 72 h constant exposure). Besides, the “log P” value in data set [4] was “–1.24”.

Source of the values: article PMC5870190, “A three-in-one-bullet for oesophageal cancer: replication fork collapse, spindle attachment failure and enhanced radiosensitivity generated by a ruthenium(II) metallo-intercalator” (Chemical Science, 2017).
